According to patent US20080193986A1, “Mutant strain of Amycolatopsis orientalis and process for preparing vancomycin hydrochloride” (priority 2007, published 2008):
Structures can show the parent of a compound that is named as a salt.

Experiments:
[1] = Solubility of dried powder; assay type: physicochemical; settings: dried vancomycin hydrochloride of Example 9
Procedure: (§1) Next, chilled absolute ethanol was added to the concentrate drop by drop until vancomycin hydrochloride was crystallized, the slurry was left in refrigerator for 12 hours to accelerate the crystallization, and then the slurry was filtered off. The filtered precipitate was dried in a vacuum dryer at 40° C. […] The analytical results are illustrated in FIG. 3 and FIG. 4.

[2] = Antimicrobial activity by analysis based on U.S. Pharmacopeia 28; settings: dried vancomycin hydrochloride of Example 9
Procedure: as §1

With `CN[C@H](CC(C)C)C(=O)N[C@H]1C(=O)N[C@@H](CC(N)=O)C(=O)N[C@H]2C(=O)N[C@H]3C(=O)N[C@H](C(=O)N[C@H](C(=O)O)c4cc(O)cc(O)c4-c4cc3ccc4O)[C@H](O)c3ccc(c(Cl)c3)Oc3cc2cc(c3O[C@@H]2O[C@H](CO)[C@@H](O)[C@H](O)[C@H]2O[C@H]2C[C@](C)(N)[C@H](O)[C@H](C)O2)Oc2ccc(cc2Cl)[C@H]1O` [vancomycin hydrochloride] the solubility of powder [1] was “freely soluble” and the antimicrobial activity [2] was 1050 U.
